Test results: patent US20150164837A1, “USE OF AMPHOTERIC SURFACTANTS FOR THE PREVENTION AND TREATMENT OF PATHOGENIC VAGINAL BIOFILMS IN VAGINAL INFECTIONS” (DR. AUGUST WOLFF GMBH & CO. KG ARZNEIMITTEL, priority 2012, published 2015)

Columns and labels:
[1] = test system: vaginal biofilm (Gardnerella vaginalis, Atopobium vaginae); conditions: cited from earlier work
[2] = test system: Gardnerella vaginalis biofilms; test: Crystal violet staining of biofilm mass, forming (t0) and well developed, still growing (t20m) biofilms; type: cell-based, Gardnerella vaginalis (strain ATCC 14018); conditions: for inhibition of biofilm formation / reduction of cell mass (in words): well developed and still growing biofilms (t20m)
Description: (§1) The inhibitory effect of amphoteric surfactants on the formation of Gardnerella vaginalis biofilms were tested in biofilms, grown in 96 well tissue culture test plates. Before starting the biofilm experiments, MIC (minimal inhibitory concentration) values for sodium cocoamphoacetate for planktonic growing Gardnerella vaginalis cultures were determined MIC values for sodium cocoamphoacetate against Gardnerella vaginalis had not been reported so far.
(§2) Gardnerella vaginalis (strain ATCC 14018) were grown on Columbia agar plates supplemented with 5% sheep blood, liquid cultures were grown in brain heart infusion broth supplemented with 2% (w/v) gelatine, 0.5% yeast extract, 0.1% starch and 1% D-(+)-glucose at 37° C. and with the addition of 5% CO2.
For a preculture, bacteria were inoculated from plate or glycerol stock and grew overnight. This preculture was used for starting a new culture. Here the cultivation was performed in microtiter plates in a final volume of […] For testing substances in a forming biofilm (t0), substances were added at this time point. After 20 hours of cultivation, measurements determining the mass of biofilm cells and the biofilm viability were started.
For testing substances in a well developed and further growing biofilm (t20m), medium was gently removed after 20 hours of cultivation and compounds were added in fresh medium for enabling further growth. Incubation was performed for another 20 hours.
At 20 hours (t0) respectively 40 hours of cultivation (t20m) measurements were started, concerning the biofilm formation and viability.
(§3) Crystal violet (CV) staining was used to determine the mass of biofilm cells. For this purpose biofilms grown in 96 well tissue test plates were washed with buffer (PBS, pH of 7.4), dried and stained under shaking with 2% crystal violet in ethanol. After washing with buffer, drying and over night extraction with ethanol, the absorbance (OD620) was measured in a plate reader and the percentage of biomass inhibition was calculated.

[3] = test system: Gardnerella vaginalis biofilms; test: Live/Dead BacLight viability staining, forming (t0) and well developed, still growing (t20m) biofilms; type: cell-based, Gardnerella vaginalis (strain ATCC 14018); conditions: for inhibition of cell viability (in words): well developed and still growing biofilms (t20m)
Description: as §1, §2
For a preculture, bacteria were inoculated from plate or glycerol stock and grew overnight. This preculture was used for starting a new culture. Here the cultivation was performed in microtiter plates in a final volume of […] For testing substances in a forming biofilm (t0), substances were added at this time point. After 20 hours of cultivation, measurements determining the mass of biofilm cells and the biofilm viability were started. […]
The viability was determined using the Live/Dead BacLight bacterial viability staining. […] In contrast, propidium iodide penetrates only bacteria with damaged membranes, causing a reduction in the SYTO 9 stain fluorescence when both dyes are present. […] After 15 min of incubation in the dark fluorescence was measured in a microtiter plate reader equipped with detectors and filter sets for monitoring red (630 nm) and green (530 nm) fluorescence. Afterwards the percentage of the reduction of viability was calculated.
The tested substances namely cocoamidopropyl hydroxysultaine, disodium cocamphodiacetate, sodium cocoamphopropionate and sodium lauroamphoacetate were dissolved in fresh media and added to a mature G. vaginalis biofilm (t20m, see Example 1). After another 20 hrs of incubation, the biofilm viability was determined via Live/Dead staining, as described above.

[4] = test system: Gardnerella vaginalis biofilms in the stationary phase; test: Biomass of biofilms in the stationary phase (compounds added in PBS to 20 hours old biofilms); type: cell-based; conditions: 1 mg/ml to 50 mg/ml
Description: as §3, with “calculated. To determine how different concentrations of sodium cocoamphoacetate damage well formed biofilms in the stationary phase, compounds were added in PBS buffer to 20 hours old biofilms and analyzed after further 20 hours of incubation by determining their biomass and viability.” for “calculated.”

For `Cc1ncc([N+](=O)[O-])n1CCO` [metronidazole], the “effect on the vaginal biofilm” value ([1]; 500 mg orally twice daily for 7 days, 18 women) is given as “did not erase the Gardnerella vaginalis biofilm completely” and the “Nugent Score after treatment” value ([1]; after 7 day treatment with oral metronidazole) is given as “below 7”.

For disodium cocamphodiacetate, the “inhibition of biofilm formation / reduction of cell mass (in words)” value [2] was “reduce the cell mass” and the “inhibition of cell viability (in words)” value [3] was “inhibit the viability”.

With sodium cocoamphoacetate the “reduction in biofilm formation” value [4] was 44-65%, the “inhibition of biofilm formation” value ([2]; added at the beginning of biofilm cultivation (t0), concentrations of 0.25 mg/ml and higher) was “completely inhibited” and the “decrease of viability of the bacterial cells” value ([3]; added at the beginning of biofilm cultivation (t0), 0.25 mg/ml to 1 mg/ml) was 90%.

With sodium lauroamphoacetate the “inhibition of biofilm formation / reduction of cell mass (in words)” value [2] was “reduce the cell mass” and the “inhibition of cell viability (in words)” value [3] was “inhibit the viability”.
